Source: patent publication US8569336B2, “Compounds for the treatment of inflammatory disorders” (priority 2008, dated 2013)

Biological target: T1, purified catalytic domain of recombinant human TACE (rhTACEc) (Homo sapiens, UniProt P78536, N452Q/S266A)
T1 construct: 6xHis (C); made in house; host or cells: baculovirus/Hi5 insect cells
Test: TACE kinetic assay: cleavage of internally quenched peptide substrate TNF-FRET 2 (Ki)
Type: biochemical
Details: TNF-FRET 2 substrate, read-out: Ki

T1 sequence (P78536 215-477 S266A/N452Q): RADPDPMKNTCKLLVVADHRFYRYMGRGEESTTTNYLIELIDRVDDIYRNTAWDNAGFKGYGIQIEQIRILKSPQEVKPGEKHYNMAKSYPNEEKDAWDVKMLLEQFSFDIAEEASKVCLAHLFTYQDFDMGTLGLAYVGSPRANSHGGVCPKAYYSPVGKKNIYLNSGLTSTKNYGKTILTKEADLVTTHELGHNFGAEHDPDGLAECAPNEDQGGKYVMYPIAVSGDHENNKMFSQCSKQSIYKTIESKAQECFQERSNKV

SMILES	Ki [nM]
COc1ccc2c(c1)C(=O)N(C[C@@]1(c3cc4cc(Cl)ncc4o3)NC(=O)NC1=O)C2 [Compound 2300]	0.49
CNC(=O)Nc1ccc2oc([C@]3(CN4Cc5ccc(OC)cc5C4=O)NC(=O)NC3=O)cc2c1 [Compound 2227]	0.478
COc1ccc2c(c1)C(=O)N(C[C@@]1(c3cc4nc(N5CCCCC5=O)ccc4o3)NC(=O)NC1=O)C2 [Compound 1512]	1.3
COc1ccc2c(c1)C(=O)N(C[C@@]1(c3cc4nc(-c5cccc(C#N)c5)ccc4o3)NC(=O)NC1=O)C2 [Compound 2470]	0.578
COc1ccc2c(c1)C(=O)N(C[C@@]1(c3cc4cc(-c5ccc(N)nc5)c(F)cc4o3)NC(=O)NC1=O)C2 [Compound 1188]	0.51
COc1ccc2c(c1F)C(=O)N(C[C@@]1(c3cc4nc(N5C[C@@H](O)CC5=O)ccc4o3)NC(=O)NC1=O)C2 [Compound 1501]	0.5
COc1ccc2c(c1)C(=O)N(C[C@@]1(c3cc4ccc(-c5nnc(C)o5)cc4o3)NC(=O)NC1=O)C2 [Compound 2190]	0.515
COc1ccc2c(c1)C(=O)N(C[C@@]1(c3cc4nc(N5CCOCC5)ccc4o3)NC(=O)NC1=O)C2 [Compound 2163]	0.563
CCC1(c2ccc3oc([C@]4(CN5Cc6ccc(OC)c(F)c6C5=O)NC(=O)NC4=O)cc3c2)NC(=O)NC1=O (stereo partly drawn) [Compound 1307]	0.81
COc1ccc2c(c1)C(=O)N(C[C@@]1(c3cc4cc(C5(C)NC(=O)NC5=O)cnc4o3)NC(=O)NC1=O)C2 (stereo partly drawn) [Compound 500]	0.695
COc1ccc2c(c1F)C(=O)N(C[C@@]1(c3cc4cnc(C)cc4o3)NC(=O)NC1=O)C2 [Compound 30]	0.38
COc1ccc2c(c1)C(=O)N(C[C@@]1(c3cc4c(N5CCOCC5)nccc4o3)NC(=O)NC1=O)C2 [Compound 2281]	0.458
COc1ccc2c(c1F)C(=O)N(C[C@@]1(c3cc4nc(-n5ccnc5)ccc4o3)NC(=O)NC1=O)C2 [Compound 1523]	0.6
COc1ccc2c(c1)C(=O)N(C[C@@]1(c3cc4nc(N5C[C@H](O)CC5=O)ccc4o3)NC(=O)NC1=O)C2 [Compound 2158]	0.545
COc1ccc2c(c1F)C(=O)N(C[C@@]1(c3cc4cc([C@]5(C)NC(=O)NC5=O)c(F)cc4o3)NC(=O)NC1=O)C2 (single isomer, unassigned) [Compound 1327]	0.47
COc1ccc2c(c1)C(=O)N(C[C@@]1(c3cc4nc(N5C[C@@H](O)CC5=O)ccc4o3)NC(=O)NC1=O)C2 [Compound 2154]	0.645

Next, values leading:

Ki [nM]	SMILES
0.179	COc1ccc2c(c1)C(=O)N(C[C@@]1(c3cc4nc(NC5CC5)ccc4o3)NC(=O)NC1=O)C2 [Compound 2148]
0.408	CCCn1cc(-c2ccc3oc([C@]4(CN5Cc6ccc(OC)cc6C5=O)NC(=O)NC4=O)cc3n2)cn1 [Compound 2117]
0.384	COc1ccc2c(c1)C(=O)N(C[C@@]1(c3cc4c(-c5cccnc5)nccc4o3)NC(=O)NC1=O)C2 [Compound 2235]
0.42	COc1ccc2c(c1F)C(=O)N(C[C@@]1(c3cc4ncc(C(N)=O)cc4o3)NC(=O)NC1=O)C2 [Compound 1908]
0.418	COc1ccc2c(c1)C(=O)N(C[C@@]1(c3cc4nc(Nc5ccnn5C)ccc4o3)NC(=O)NC1=O)C2 [Compound 2131]
0.155	COc1ccc2c(c1)C(=O)N(C[C@@]1(c3cc4nc(-c5c(C)nn(C)c5C)ccc4o3)NC(=O)NC1=O)C2 [Compound 2105]
0.32	COc1ccc2c(c1)C(=O)N(C[C@@]1(c3cc4ccc(C(=O)NCCN(C)C)cc4o3)NC(=O)NC1=O)C2 [Compound 2412]
0.32	COc1ccc2c(c1)C(=O)N(C[C@@]1(c3cc4nc(C#N)ccc4o3)NC(=O)NC1=O)C2 [Compound 2473]

Test system: not listed separately
Test: Area under the curve determinations of plasma levels in rats (rrAUC), oral 10 mg/kg
Type: in vivo
Details: rat, plasma 0.5-6 h, read-out: RR AUC (rapid rat AUC, rrAUC)

AUC [µM·h]	SMILES
0.303	COc1ccc2c(c1)C(=O)N(C[C@@]1(c3cc4nc(N5CCCCC5=O)ccc4o3)NC(=O)NC1=O)C2 [Compound 1512]
0.667	COc1ccc2c(c1F)C(=O)N(C[C@@]1(c3cc4nc(N5C[C@@H](O)CC5=O)ccc4o3)NC(=O)NC1=O)C2 [Compound 1501]
0.094	COc1ccc2c(c1F)C(=O)N(C[C@@]1(c3cc4ncc(C(N)=O)cc4o3)NC(=O)NC1=O)C2 [Compound 1908]
2.01	CCC1(c2ccc3oc([C@]4(CN5Cc6ccc(OC)c(F)c6C5=O)NC(=O)NC4=O)cc3c2)NC(=O)NC1=O (stereo partly drawn) [Compound 1307]
1.1	COc1ccc2c(c1)C(=O)N(C[C@@]1(c3cc4cc(C5(C)NC(=O)NC5=O)cnc4o3)NC(=O)NC1=O)C2 (stereo partly drawn) [Compound 500]
4.29	COc1ccc2c(c1F)C(=O)N(C[C@@]1(c3cc4nc(-n5ccnc5)ccc4o3)NC(=O)NC1=O)C2 [Compound 1523]
2.97	COc1ccc2c(c1F)C(=O)N(C[C@@]1(c3cc4cc([C@]5(C)NC(=O)NC5=O)c(F)cc4o3)NC(=O)NC1=O)C2 (single isomer, unassigned) [Compound 1327]

Same assay, conditions: rat, plasma 0.5-6 h post-dosing, read-out: RR AUC (rapid rat AUC, rrAUC)

SMILES	AUC [µM·h]
CNC(=O)Nc1ccc2oc([C@]3(CN4Cc5ccc(OC)cc5C4=O)NC(=O)NC3=O)cc2c1 [Compound 2227]	0.057
COc1ccc2c(c1)C(=O)N(C[C@@]1(c3cc4cc(-c5ccc(N)nc5)c(F)cc4o3)NC(=O)NC1=O)C2 [Compound 1188]	0.355
COc1ccc2c(c1)C(=O)N(C[C@@]1(c3cc4ccc(-c5nnc(C)o5)cc4o3)NC(=O)NC1=O)C2 [Compound 2190]	0.414
COc1ccc2c(c1)C(=O)N(C[C@@]1(c3cc4nc(N5CCOCC5)ccc4o3)NC(=O)NC1=O)C2 [Compound 2163]	3.64
COc1ccc2c(c1F)C(=O)N(C[C@@]1(c3cc4cnc(C)cc4o3)NC(=O)NC1=O)C2 [Compound 30]	26.3
COc1ccc2c(c1)C(=O)N(C[C@@]1(c3cc4nc(N5C[C@H](O)CC5=O)ccc4o3)NC(=O)NC1=O)C2 [Compound 2158]	1.19
COc1ccc2c(c1)C(=O)N(C[C@@]1(c3cc4nc(N5C[C@@H](O)CC5=O)ccc4o3)NC(=O)NC1=O)C2 [Compound 2154]	0.393

Further lines, results first:

AUC [µM·h]	SMILES
9.34	COc1ccc2c(c1)C(=O)N(C[C@@]1(c3cc4nc(NC5CC5)ccc4o3)NC(=O)NC1=O)C2 [Compound 2148]
0.32	CCCn1cc(-c2ccc3oc([C@]4(CN5Cc6ccc(OC)cc6C5=O)NC(=O)NC4=O)cc3n2)cn1 [Compound 2117]
0.018	COc1ccc2c(c1)C(=O)N(C[C@@]1(c3cc4c(-c5cccnc5)nccc4o3)NC(=O)NC1=O)C2 [Compound 2235]
0.257	COc1ccc2c(c1)C(=O)N(C[C@@]1(c3cc4nc(Nc5ccnn5C)ccc4o3)NC(=O)NC1=O)C2 [Compound 2131]
7.54	COc1ccc2c(c1)C(=O)N(C[C@@]1(c3cc4nc(-c5c(C)nn(C)c5C)ccc4o3)NC(=O)NC1=O)C2 [Compound 2105]

Same assay, conditions: rat, plasma, blood collected 0.5-6 h post-dosing, read-out: RR AUC (rapid rat AUC, rrAUC)

SMILES	AUC [µM·h]
COc1ccc2c(c1)C(=O)N(C[C@@]1(c3cc4cc(Cl)ncc4o3)NC(=O)NC1=O)C2 [Compound 2300]	22.7
COc1ccc2c(c1)C(=O)N(C[C@@]1(c3cc4nc(-c5cccc(C#N)c5)ccc4o3)NC(=O)NC1=O)C2 [Compound 2470]	22.1
COc1ccc2c(c1)C(=O)N(C[C@@]1(c3cc4c(N5CCOCC5)nccc4o3)NC(=O)NC1=O)C2 [Compound 2281]	0.749

Other lines, results leading:

AUC [µM·h]	SMILES
0.104	COc1ccc2c(c1)C(=O)N(C[C@@]1(c3cc4ccc(C(=O)NCCN(C)C)cc4o3)NC(=O)NC1=O)C2 [Compound 2412]
5.69	COc1ccc2c(c1)C(=O)N(C[C@@]1(c3cc4nc(C#N)ccc4o3)NC(=O)NC1=O)C2 [Compound 2473]

Test system: TNF-α production from human whole blood
Test: Inhibition of TNF-α production from human whole blood (hWBA), LPS stimulated, ELISA
Type: cell-based
Details: Homo sapiens, 3.5 h, human whole blood diluted 1:1, LPS stimulated, 3.5 h, TNF-α by ELISA; read-out: hWBA (IC50)

SMILES	IC50 [nM]
CNC(=O)Nc1ccc2oc([C@]3(CN4Cc5ccc(OC)cc5C4=O)NC(=O)NC3=O)cc2c1 [Compound 2227]	541
COc1ccc2c(c1)C(=O)N(C[C@@]1(c3cc4cc(-c5ccc(N)nc5)c(F)cc4o3)NC(=O)NC1=O)C2 [Compound 1188]	720
COc1ccc2c(c1)C(=O)N(C[C@@]1(c3cc4ccc(-c5nnc(C)o5)cc4o3)NC(=O)NC1=O)C2 [Compound 2190]	958
COc1ccc2c(c1)C(=O)N(C[C@@]1(c3cc4nc(N5CCOCC5)ccc4o3)NC(=O)NC1=O)C2 [Compound 2163]	1120
COc1ccc2c(c1F)C(=O)N(C[C@@]1(c3cc4cnc(C)cc4o3)NC(=O)NC1=O)C2 [Compound 30]	205
COc1ccc2c(c1)C(=O)N(C[C@@]1(c3cc4nc(N5C[C@H](O)CC5=O)ccc4o3)NC(=O)NC1=O)C2 [Compound 2158]	180
COc1ccc2c(c1)C(=O)N(C[C@@]1(c3cc4nc(N5C[C@@H](O)CC5=O)ccc4o3)NC(=O)NC1=O)C2 [Compound 2154]	125

The next lines start with the values.

IC50 [nM]	SMILES
624	COc1ccc2c(c1)C(=O)N(C[C@@]1(c3cc4nc(NC5CC5)ccc4o3)NC(=O)NC1=O)C2 [Compound 2148]
1010	CCCn1cc(-c2ccc3oc([C@]4(CN5Cc6ccc(OC)cc6C5=O)NC(=O)NC4=O)cc3n2)cn1 [Compound 2117]
553	COc1ccc2c(c1)C(=O)N(C[C@@]1(c3cc4c(-c5cccnc5)nccc4o3)NC(=O)NC1=O)C2 [Compound 2235]
637	COc1ccc2c(c1)C(=O)N(C[C@@]1(c3cc4nc(Nc5ccnn5C)ccc4o3)NC(=O)NC1=O)C2 [Compound 2131]
216	COc1ccc2c(c1)C(=O)N(C[C@@]1(c3cc4nc(-c5c(C)nn(C)c5C)ccc4o3)NC(=O)NC1=O)C2 [Compound 2105]

Same assay, conditions: Homo sapiens, LPS-stimulated human whole blood, TNF-α by ELISA; read-out: hWBA (IC50)

IC50 [nM]	SMILES
1550	COc1ccc2c(c1)C(=O)N(C[C@@]1(c3cc4nc(N5CCCCC5=O)ccc4o3)NC(=O)NC1=O)C2 [Compound 1512]
131	COc1ccc2c(c1F)C(=O)N(C[C@@]1(c3cc4nc(N5C[C@@H](O)CC5=O)ccc4o3)NC(=O)NC1=O)C2 [Compound 1501]
136	COc1ccc2c(c1F)C(=O)N(C[C@@]1(c3cc4ncc(C(N)=O)cc4o3)NC(=O)NC1=O)C2 [Compound 1908]
204	CCC1(c2ccc3oc([C@]4(CN5Cc6ccc(OC)c(F)c6C5=O)NC(=O)NC4=O)cc3c2)NC(=O)NC1=O (stereo partly drawn) [Compound 1307]
163	COc1ccc2c(c1)C(=O)N(C[C@@]1(c3cc4cc(C5(C)NC(=O)NC5=O)cnc4o3)NC(=O)NC1=O)C2 (stereo partly drawn) [Compound 500]
289	COc1ccc2c(c1F)C(=O)N(C[C@@]1(c3cc4nc(-n5ccnc5)ccc4o3)NC(=O)NC1=O)C2 [Compound 1523]
161	COc1ccc2c(c1F)C(=O)N(C[C@@]1(c3cc4cc([C@]5(C)NC(=O)NC5=O)c(F)cc4o3)NC(=O)NC1=O)C2 (single isomer, unassigned) [Compound 1327]

Same assay, conditions: Homo sapiens, human whole blood diluted 1:1, LPS stimulated, TNF-α by ELISA; read-out: hWBA (IC50)

SMILES	IC50 [nM]
COc1ccc2c(c1)C(=O)N(C[C@@]1(c3cc4cc(Cl)ncc4o3)NC(=O)NC1=O)C2 [Compound 2300]	902
COc1ccc2c(c1)C(=O)N(C[C@@]1(c3cc4nc(-c5cccc(C#N)c5)ccc4o3)NC(=O)NC1=O)C2 [Compound 2470]	803
COc1ccc2c(c1)C(=O)N(C[C@@]1(c3cc4c(N5CCOCC5)nccc4o3)NC(=O)NC1=O)C2 [Compound 2281]	510

Now from value to compound:

IC50 [nM]	SMILES
115	COc1ccc2c(c1)C(=O)N(C[C@@]1(c3cc4ccc(C(=O)NCCN(C)C)cc4o3)NC(=O)NC1=O)C2 [Compound 2412]
564	COc1ccc2c(c1)C(=O)N(C[C@@]1(c3cc4nc(C#N)ccc4o3)NC(=O)NC1=O)C2 [Compound 2473]
